According to patent US20090104119A1, “Dendrimer Based Compositions And Methods Of Using The Same” (priority 2004, published 2009):

What was measured:
[1] = system: KB cells; test: Inhibition of cell growth by total cell protein; conditions: 150 nM FA with 150 nM MTX, 24 h, then 6 d fresh medium; total cell protein
Protocol: Cell culture and treatment. KB cells were maintained in folate-free medium containing 10% serum (See, e.g., Quintana et al, Pharm. Res. 19, 1310 (2002)) to provide extracellular FA similar to that found in human serum. Cells were plated in 12-well plates for uptake studies, in 24-well plates for cell growth analysis, and in 96-well plates for XTT assay. Cells were rinsed with FA-free medium containing dialyzed serum and incubated at 37° C. with dendrimer-drug conjugates for the indicated time periods and concentrations. KB cells were also maintained in RPMI medium containing 2 μM FA to obtain cells which express low FAR.
Evaluation of dendrimer cytotoxicity. Cell growth was determined by assay of the total protein in lysates of treated cells using a bicinchoninic acid reagent (PIERCE, and by XTT assay, using a kit from Roche.
Time course and dose dependent inhibition of cell growth. Previous studies have shown that MTX-induced cytotoxicity is detectable in vitro only if the medium is completely deprived of FA (See, e.g., Sobrero & Bertino, Int. J. Cell Cloning 4, 51 (1986)). The effect of the trifunctional dendrimers on cell growth was tested in cells incubated in a FA-deficient medium. Cells were treated with 300 nM conjugates (equivalent of 1500 nM MTX) or 1500 nM free MTX for 1-4 days, and cell proliferation was determined by estimation of cellular protein content. Cells were treated for 2 days with different concentrations of the conjugates or free MTX (the conjugate concentration is given as MTX equivalents, with 5 MTX per dendrimer molecule). KB cells which express high and low FAR were incubated with 30 nM of the dendrimers for 1 hr at 37° C., rinsed, and the fluorescence of cells was determined by flow cytometric analysis (See. e.g., FIG. 21, left panel).
KB cells were treated with 150 or 500 nM MTX in the presence or absence of equimolar concentrations of free FA for 24 h. […] The cells were rinsed to remove the drugs and incubated with fresh medium for an additional 6 d, and total cell protein was determined.

[2] = system: KB cells; test: Inhibition of cell growth by XTT assay; assay type: cell-based, human; conditions: for inhibition of cell growth, XTT: 1, 2 or 3 days
Protocol: (§1) Cell culture and treatment.
Evaluation of dendrimer cytotoxicity.
Because the binding of the conjugate to KB cells reaches maximal uptake within 1 h (Quintana et al, 2002. Pharmaceutical Research 19: 1310-1316.), the effect of the G5-FI-FA-MTX on cell growth was initially tested by pre-incubation of cells with the conjugate for 1 h, followed by incubation in a drug-free medium for 5 d. […] When the cells were pre-incubated with dendrimers for 4 h, there was a modest decrease of about 10% in cell growth as determined by XTT assay. The cytotoxicity measurements were therefore done by incubation with the dendrimer for a minimum of 24 h, a pre-incubation time period shown to induce significant cytotoxicity.
The inhibition of cell growth induced by the conjugates was also tested by XTT assay which is based on the conversion of XTT to formazan by the active mitochondria of live cells (See, e.g., Roehm et al, J Immunol Methods 142, 257 (1991)).
As free FA blocks the uptake of the dendrimers as well as rescues cells from MTX-induced cytotoxicity, the effect of pre-incubation of cells with excess FA on the anti-proliferative effect of G5-FITC-FA-MTX was tested. KB cells were exposed to different concentrations of the conjugate or free MTX for 24 h in the absence or presence of 50 μM FA. The incubation medium was removed, the cells were rinsed and incubated with fresh medium for 5 additional days in the absence of the drugs, and the XTT assay was performed (See, e.g., FIG. 24, □, ▪, represents cells treated with MTX; Δ, ▴, represents cells treated with G5-FITC-FA-MTX).
The anti-proliferative effect of the MTX-conjugates was compared to conjugates that lacked either the FA or the FITC molecule. KB cells were incubated with 30 nM of the conjugates (=150 nM effective MTX concentration) for 24 h and the incubation medium was removed. The cells were rinsed and incubated for an additional 5 d in fresh medium in the absence of the drugs, and the XTT assay was performed.

[3] = mouse, in vivo
Text: Recipient animal and tumor model. Immunodeficient, 6- to 8-weekold athymic nude female mice [Sim:(NCr) nu/nu fisol] were purchased from Simonsen Laboratories, Inc. (Gilroy, Calif.). Five- to 6-week-old Fox Chase severe combined immunodeficient (SCID; CB-17/lcrCrl-scidBR) female mice were purchased from the Charles River Laboratories (Wilmington, Mass.) and housed in a specific pathogen-free animal facility at the University of Michigan Medical Center in accordance with the regulations of the University's Committee on the Use and Care of Animals as well as with federal guidelines, including the Principles of Laboratory Animal Care. Animals were fed ad libitum with Laboratory Autoclavable Rodent Diet 5010 (PMI Nutrition International, St. Louis, Mo.). Three weeks before tumor cell injection, the food was changed to a folate-deficient diet (TestDiet, Richmond, Ind.). For urine and feces collection, animals were housed in metabolic rodent cages (Nalgene, Rochester, N.Y.).
Tumor cell line. The KB human cell line, which overexpresses the folate receptor (See, e.g., Turek et al, J Cell Sci 106, 423 (1993)), was purchased from the American Type Tissue Collection (Manassas, Va.) and maintained in vitro at 37° C., 5% CO2 in folate-deficient RPMI 1640 supplemented with penicillin (100 units/mL), streptomycin (100 μg/mL), and 10% heat-inactivated fetal bovine serum. Before injection in the mice, the cells were harvested with trypsin-EDTA solution, washed, and resuspended in PBS. The cell suspension (5×10^6 cells in 0.2 mL) was injected s.c. into one flank of each mouse using a 30-gauge needle. In the biodistribution studies, the tumors were allowed to grow for 2 weeks until reaching ˜0.9 cm^3 in volume. The formula chosen to compute tumor volume was for a standard volume of an ellipsoid, where V= 4/3π (½ length×½ width×½ depth). With an assumption that width equals depth and […], the formula used was V=½×length×width^2. Targeted drug delivery using conjugate injections was started on the fourth day after implantation of the KB cells.
Biodistribution and excretion of tritiated dendrimer. […] Both tritiumlabeled conjugates were delivered at equimolar concentrations of the modified dendrimer. At 5 minutes, 2 hours, 1 day, 4 days, and 7 days postinjection, the animals were euthanized and samples of tumor, heart, lung, liver, spleen, pancreas, kidney, and brain were taken. […] The mice were euthanized at 5 minutes, 1 day, and 4 days following injection, and tissues were harvested as above. Blood was collected at each time point via cardiac puncture. Each group included three to five mice. Urine and feces samples were collected at 2, 4, 8 and 12 hours and 1, 2, 3, and 4 days.
Radioactive tissue samples were prepared as described in Nigavekar et al, Pharm Res 21, 476 (2004). The tritium content was measured in a liquid scintillation counter (LS 6500, Beckman Coulter, Fullerton, Calif.). The values of measured radioactivity were adjusted for the counting efficiency of the instrument and used to derive radioactivity (1 μCi=2.22×10^6 dpm) per sample. These values were then normalized by tissue weight and the specific radioactivity of the conjugates was reported as a percentage of the injected dosage (% ID/g). The excreted radioactivity (dendrimer) via urine and feces was reported as a percentage of the injected dosage (% ID).
Biodistribution of tritiated dendrimers. […] The mice were maintained on a folate-deficient diet for the duration of the experiment to minimize the circulating levels of folic acid (See, e.g., Mathias et al., J Nucl Med 29, 1579 (1998)). […] Mice were evaluated at various time points (5 minutes to 7 days) following i.v. administration of the conjugates.

[4] = system: KB cells which express a high cell surface FA receptor (FAR); test: Cellular uptake/binding of dendrimers in high-FAR KB cells, flow cytometry; assay type: cell-based, human
Protocol: as §1
(§2) Flow Cytometry and Confocal Microscopy. The standard fluorescence of the dendrimer solutions was quantified using a Beckman spectrofluorimeter. For flow cytometric analysis of the uptake of the targeted polymer, cells were trypsinized and suspended in PBS containing 0.1% bovine serum albumin (PBSB) and analyzed using a Becton Dickinson FACScan analyzer. The FL1-fluorescence of 10,000 cells was measured and the mean fluorescence of gated viable cells was quantified. Confocal microscopic analysis was performed in cells plated on a glass cover-slip, using a Carl Ziess confocal microscope. Fluorescence and differential interference contrast (DIC) images were collected simultaneously using an argon laser, using the appropriate filters for FITC.
The cellular uptake of the dendrimers was measured in KB cells which express a high cell surface FA receptor (FAR). The FA-conjugated dendrimers bound to the cells in a dose-dependent fashion, with 50% binding at 10-15 nM for both the G5-FITC-FA and G5-FITC-FA-MTX, while the control dendrimer G5-FITC was not detected in the KB cells (See, e.g., FIG. 18A). Identical binding curves were obtained for the G5-FITC-FA and G5-FITC-FA-MTX when the fluorescence obtained was normalized for the quenching observed in the standard solutions of the dendrimers (See e.g., FIG. 18B).
(§3) The effect of free FA on the uptake of the dendrimers was tested in KB cells that express both high and low FAR. The binding of the conjugates to the low FAR-expressing KB cells was 30% of that of the high FAR-expressing cells for both the G5-FITC-FA and G5-FITC-FA-MTX (See, for e.g., FIG. 19, left panel). […] The binding and internalization of the dendrimers to KB cells was assessed by confocal microscopy. KB cells were incubated with 250 nM of the indicated dendrimers for 24 hours and confocal images were taken. Conjugates containing the targeting molecule FA internalized into KB cells within 24 h (See, e.g., FIG. 20).

[5] = system: s.c. human KB xenografts; test: Targeted drug delivery, tumor growth and survival in SCID mice with KB xenografts; assay type: in vivo, SCID CB-17 mice; conditions: first trial, up to 15 injections; cumulative 5.0 mg/kg methotrexate equivalents or equimolar dendrimer
Protocol: Recipient animal and tumor model.
Delivery of targeted nanoparticle therapeutic. Twice weekly, SCID mice with s.c. KB xenografts, starting on day 4 after tumor implantation, received via the tail vein an injection of either targeted or nontargeted conjugate containing methotrexate, a conjugate without methotrexate, free methotrexate, or saline as a control. The compounds were delivered in a 0.2 mL volume of saline per 20 g of mouse. The single dose of methotrexate delivered each time equaled 0.33 mg/kg. The higher doses of 1.67 and 3.33 mg/kg free methotrexate were also tested. The conjugates were delivered at equimolar concentration of methotrexate calculated based on the number of methotrexate molecules present in a nanoparticle. The conjugate without methotrexate was delivered at equimolar concentration of dendrimer. In the initial trial, six groups of mice with five mice in each group received up to 15 injections. In the follow-up trial, mice received up to 28 injections dependent on their survival. The body weights of the mice were monitored throughout the experiment as an indication of adverse effects of the drug. Histopathology of multiple organs was done at the termination of each trial and each time mouse had to be euthanized due to toxic effects or tumor burden. Tissues from lung, heart, liver, pancreas, spleen, kidney, and tumor were analyzed. Additionally, cells were isolated from tumors, stained with targeted fluorescein-labeled conjugate, and tested for the presence of folic acid receptors using flow cytometer.
Targeted drug delivery to tumor cells through the folate receptor. The efficacy of different doses of conjugates was tested on SCID CB-17 mice bearing s.c. human KB xenografts and was compared with equivalent and higher doses of free methotrexate. Mice were maintained on the folic acid-deficient diet for 3 weeks before injection of the KB tumor cells to achieve circulating levels of folic acid that approach those in human serum and to prevent down-regulation of folate receptors on tumor xenografts (See, Mathias et al., J Nucl Med 29, 1579 (1998)). Six groups of SCID mice with five mice in each group were injected s.c. on one flank with 5×10^6 KB cells in 0.2 mL PBS suspension. The highest total dose of G5-FI-FA-MTX therapeutic used equals 55.0 mg/kg and is equivalent to a 5.0 mg/kg total cumulative dose of free methotrexate (FIG. 29). The therapeutic dose of the conjugate was compared with three cumulative doses of free methotrexate equivalent to 33.3, 21.7, and 5.0 mg/kg accumulated in 10 to 15 injections based on mouse survival. Saline and the conjugate without methotrexate (G5-FI-FA) were used as controls.

[6] = system: low FAR-expressing KB cells; test: Cellular uptake/binding of dendrimers in low-FAR KB cells, flow cytometry; assay type: cell-based, human
Protocol: as §1, §2, §3
Time course and dose dependent inhibition of cell growth.

[7] = 50 μM FA, 24 h, then 5 days drug-free, XTT

| Molecule | amount in feces [3] | concentration in KB tumor [3] | concentration in liver [3] | time of excretion, primarily through the kidney [3] [h] | inhibition of cell growth, XTT [2] | also measured |
| --- | --- | --- | --- | --- | --- | --- |
| Nc1nc2ncc(CNc3ccc(C(=O)N[C@@H](CCC(=O)O)C(=O)O)cc3)nc2c(=O)[nH]1 [FA, Folic Acid, reference compound] | – | – | – | – | – | reversal of MTX-induced growth-arrest by FA [1]: almost completely reversed; effect of excess free FA on growth inhibition by conjugate or free MTX [2, 7]: blocked growth inhibition; increase of cell growth above control cells [2, 7]: 20% |
| G5-(Ac)50-(Ac-3H)54 [G5-^3H] | very low amounts | decreased rapidly | decreased rapidly | ≤ 24 | – | – |
| G5-(Ac)50-(Ac-3H)54-(FA)6 [G5-^3H-FA] | very low amounts | increases over the first 4 days | increases over the first 4 days | ≤ 24 | – | cumulative clearance compared with G5-3H [3]: lower |
| G5-(Ac)82-(FITC)5 [G5-FITC] | – | – | – | – | not growth-inhibitory | detection of dendrimer in KB cells ([4]; control dendrimer without FA): not detected |
| G5-(Ac)82-(FITC)5-(FA)5 [G5-FITC-FA] | – | – | – | – | not growth-inhibitory | effect on tumor growth [5]: no therapeutic effect; binding to low FAR-expressing KB cells relative to high FAR-expressing cells [6]: 30%; effect of free FA on uptake, low-FAR expressing cells ([6]; 50 μM FA, dendrimer 30 nM): completely blocked; effect of free FA on uptake, high-FAR expressing cells ([4]; 50 μM FA, dendrimer 30 nM): completely blocked |
